# Experimental data as given in article PMC6017805 (2018).
# Assays:
# Experiment in all cases: UV-Vis titration (D/Δεapp vs D plot)
# Settings in all cases: phosphate buffer 50 mM pH 7.4 (Figure 2; methods say 100 mM), 25 °C, 4a 50 μM
# [1] = system: [Poly(dA)-Poly(dT)] (DNA, polymer) A/T
# [2] = system: [Poly(dG)-Poly(dC)] (DNA, polymer) G/C
# [3] = system: AT Box [Poly(dTATAAT)-Poly(dATATTA)] (DNA, polymer) TATAAT/ATTATA
# [4] = system: GC Box [Poly(dGGGCGG)-Poly(dCCCGCC)] (DNA, polymer) GGGCGG/CCGCCC
smiles,measurement,setting,value
N[C@@H](CCCCN1C(=O)c2cccc3cccc(c23)C1=O)C(=O)NCCNC(=O)[C@@H](N)CCCCN1C(=O)c2cccc3cccc(c23)C1=O,Kb,[1],9080 M⁻¹
same,Kb,[2],1150 M⁻¹
same,Kb,[3],9710 M⁻¹
same,Kb,[4],1910 M⁻¹
